{"source": "patent US6984718B2", "about": "“Fluorescence dyes and their applications for whole-cell fluorescence screening assays for caspases, peptidases, proteases and other enzymes and the use thereof” (Cytovia, Inc., priority 1998, dated 2006)", "key": {"recombinant caspase-3": {"target": "T1, recombinant caspase-3 (Homo sapiens, UniProt P42574)", "T1 sequence (P42574 29-175 limits assumed)": "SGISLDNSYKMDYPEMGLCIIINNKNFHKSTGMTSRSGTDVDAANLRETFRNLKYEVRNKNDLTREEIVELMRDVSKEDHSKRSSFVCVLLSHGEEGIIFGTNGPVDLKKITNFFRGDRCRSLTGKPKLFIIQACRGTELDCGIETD", "T1 sequence (P42574 176-277 limits assumed)": "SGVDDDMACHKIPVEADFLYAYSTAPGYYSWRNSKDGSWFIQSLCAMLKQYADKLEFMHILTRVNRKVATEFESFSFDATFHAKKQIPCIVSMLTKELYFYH", "assay": "Cleavage of fluorogenic substrate by recombinant caspase-3, cell-free", "assay_type": "biochemical", "experimental": "The cleavage of N-(Ac-DEVD)-N′-(2,3,4,5-tetrafluorobenzoyl)-R110 (SEQ ID NO:5) (Ac-DEVD-R110-TFB) (SEQ ID NO:5) by caspase-3 was tested in a cell-free assay using recombinant enzyme. 10 μM of substrate was incubated with recombinant caspase-3 for 3 hours at 37° C. Control reactions included one sample with no enzyme (Background value) and one sample incubated in the presence of the caspase inhibitor, Ac-DEVD-CHO (SEQ ID NO:5) (Non-specific value)."}, "Jurkat T leukemia cells": {"system": "Jurkat T leukemia cells", "assay": "Whole cell assay: cleavage of caspase-3 substrate in apoptotic Jurkat cells, flow cytometry", "assay_type": "cell-based, human", "experimental": "Jurkat T leukemia cells were grown in RPMI 1640 media (Life Technologies, Inc.) +10% FCS (Sigma Chemical Company) in a 5% CO2-95% humidity incubator at 37° C., and maintained at a cell density between 4 and 8×10^5 cells/ml. Cells were harvested at 200×g and resuspended at 1×10^6 cells/ml into RPMI 1640 media containing 10% FCS and 1 ml each were dispensed in 2-wells of a 6-well plate. The apoptosis inducer staurosporine was added at 0.5 μg/ml concentration and the plate was incubated for 2 hrs at 37° C. in a 5% CO2-95% humidity incubator. Cells were pelleted and incubated with 50 μM of substrate Ac-DEVD-R110-TFB (SEQ ID NO:5) for 2 hrs at 37° C. in serum-free RPMI medium. 500 μl PBS was added and samples were analyzed by flow cytometry. All flow cytometry analyses were performed on a FACScalibur (Becton Dickinson) using CellQuest analysis software.\nThe apoptosis inducer anti-Fas antibody (CH-11; MBL) was added at 200 ng/ml concentration and the plate was incubated for 2hrs at 37° C. in a 5% CO2-95% humidity incubator. Cells were pelleted and incubated with 50 μM of substrate Ac-DEVD-R110-TFB (SEQ ID NO:5) for 2 hrs at 37° C. in serum-free RPMI medium. 500 μl PBS was added and samples were analyzed by flow cytometry.\nA pan-caspase inhibitor cbz-Val-Asp-fink(see W099/18781) was added to one of the wells. The apoptosis inducer staurosporine was added with and without the caspase inhibitor at 0.5 μg/ml concentration and the plate was incubated for 2 hrs at 37° C. in a 5% CO2-95% humidity incubator. Cells were pelleted and incubated with 50 μM of substrate Ac-DEVD-R110-TFB (SEQ ID NO:5) for 2hr at 37° C. in serum-free RPMI medium. 500 μl PBS was added and samples were analyzed by flow cytometry."}, "aminopeptidases": {"system": "aminopeptidases", "assay": "Cleavage of substrate by HL-60 cell lysate (aminopeptidases)", "assay_type": "biochemical", "details": "37° C.; for fluorescent signal after incubation with cell lysate: HL-60 cell lysate", "experimental": "N-Gly-R110-PFB was incubated with a lysate made from HL-60 cells, and the amount of fluorescence was measured at various times after incubation at 37° C. Parallel samples were run using the control substrate, N-Cbz-Gly-R110-PFB."}, "HL-60 cells": {"system": "HL-60 cells", "assay": "Staining of whole, live HL-60 cells with aminopeptidase substrate", "assay_type": "cell-based", "details": "10 μM, 2 hours at 37° C.", "experimental": "HL-60 cells (about 2×10^6) were incubated with 10 μM of N-Gly-R110-PFB for 2 hours at 37° C. in a CO2 incubator. Parallel samples were similarly incubated with the amino terminal-blocked compound, N-Cbz-Gly-R110. At the end of the incubation, the cells were harvested by centrifugation and resuspended in 50 μL of fresh medium without substrate. Aliquots of each cell suspension were placed in microslides and viewed on a Nikon inverted microscope with epifluorescent illumination."}, "[1]": {"assay": "Fluorescence standard curve of dye under cell-free conditions (fluorescent microplate reader)", "assay_type": "physicochemical", "experimental": "A standard curve consisting of 7 concentrations of N-pentafluorobenzoyl-Rhodamine 110 (0.5 to 20 μM) in a volume of 100 μL was prepared. The fluorescence of each concentration was measured (in triplicate) using a BioTek fluorescent microplate reader, and the signal was plotted as a function of dye concentration. The N-pentafluorobenzoyl-Rhodamine 110 curve was compared to a standard curve of R110 fluorescence prepared in the same way."}, "HL-60 lysates": {"system": "HL-60 lysates", "assay": "Cleavage of Z-DEVD-R110-PFB by HL-60 lysates", "assay_type": "biochemical"}}}
{"smiles": "CC(=O)N[C@@H](CC(=O)O)C(=O)N[C@@H](CCC(=O)O)C(=O)N[C@H](C(=O)N[C@@H](CC(=O)O)C(=O)Nc1ccc2c(c1)Oc1cc(NC(=O)c3cc(F)c(F)c(F)c3F)ccc1C21OC(=O)c2ccccc21)C(C)C", "note": "(stereo partly drawn) [Ac-DEVD-R110-TFB, N-(Ac-Asp-Glu-Val-Asp)-N′-(2,3,4,5-tetrafluorobenzoyl)-Rhodamine 110]", "values": [{"measurement": "increase in fluorescence over background and non-specific values", "setting": "recombinant caspase-3; 10 μM substrate, recombinant caspase-3, 3 hours at 37° C.", "result": "roughly 50 fold"}, {"measurement": "cleavage of substrate under whole cell assay conditions, anti-Fas antibody induced apoptosis", "setting": "Jurkat T leukemia cells; anti-Fas antibody 200 ng/ml 2 hrs, then 50 μM substrate 2 hrs at 37° C.", "result": "cleavage"}, {"measurement": "cleavage of substrate under whole cell assay conditions, staurosporine induced apoptosis", "setting": "Jurkat T leukemia cells; staurosporine 0.5 μg/ml 2 hrs, then 50 μM substrate 2 hrs at 37° C.", "result": "cleavage"}]}
{"smiles": "O=C(CNC(=O)OCc1ccccc1)Nc1ccc2c(c1)Oc1cc(NC(=O)c3c(F)c(F)c(F)c(F)c3F)ccc1C21OC(=O)c2ccccc21", "note": "(stereo not drawn) [N-Cbz-Gly-R110-PFB, N-(Z-Gly)-N′-pentafluorobenzoyl-Rhodamine 110]", "values": [{"measurement": "fluorescent signal after incubation with cell lysate", "setting": "aminopeptidases", "result": "did not give a signal"}, {"measurement": "fluorescent signal after incubation with buffer only (no lysate)", "setting": "aminopeptidases", "result": "did not give a signal"}, {"measurement": "fluorescence of whole cells incubated with substrate", "setting": "HL-60 cells", "result": "did not fluoresce above background levels"}]}
{"smiles": "Br.NCC(=O)Nc1ccc2c(c1)Oc1cc(NC(=O)c3c(F)c(F)c(F)c(F)c3F)ccc1C21OC(=O)c2ccccc21", "note": "(stereo not drawn) [N-Gly-R110-PFB, N-Gly-N′-pentafluorobenzoyl-Rhodamine 110 HBr]", "values": [{"measurement": "fluorescent signal after incubation with cell lysate", "setting": "aminopeptidases", "result": "strong fluorescent signal"}, {"measurement": "fluorescent signal after incubation with buffer only (no lysate)", "setting": "aminopeptidases", "result": "very weak fluorescent signal"}, {"measurement": "fluorescence of whole cells incubated with substrate", "setting": "HL-60 cells", "result": "strong, homogeneously distributed, yellowish-green fluorescence"}]}
{"smiles": "Nc1ccc2c(c1)Oc1cc(NC(=O)c3c(F)c(F)c(F)c(F)c3F)ccc1C21OC(=O)c2ccccc21", "note": "(stereo not drawn) [N-pentafluorobenzoyl-Rhodamine 110, N-Pentafluorobenzoyl-Rhodamine 110]", "values": [{"measurement": "fluorescence compared to Rhodamine 110", "setting": "[1]; cell-free conditions", "result": "weaker fluorescent dye compared to Rhodamine 110"}]}
{"smiles": "Cl.N=c1ccc2c(-c3ccccc3C(=O)O)c3ccc(N)cc3oc-2c1", "note": "[Rhodamine 110, reference compound]", "values": [{"measurement": "higher fluorescence of R110 than N-pentafluorobenzoyl-Rhodamine 110", "setting": "[1]; each concentration tested, 0.5 to 20 μM, cell-free", "result": "20 to 50", "unit": "fold"}]}
{"smiles": "CC(C)[C@H](NC(=O)[C@H](CCC(=O)O)NC(=O)[C@H](CC(=O)O)NC(=O)OCc1ccccc1)C(=O)N[C@@H](CC(=O)O)C(=O)Nc1ccc2c(c1)Oc1cc(NC(=O)c3c(F)c(F)c(F)c(F)c3F)ccc1C21OC(=O)c2ccccc21", "note": "(stereo partly drawn) [Z-DEVD-R110-PFB, N-(Z-Asp-Glu-Val-Asp)-N′-pentafluorobenzoyl-Rhodamine 110]", "values": [{"measurement": "increase in fluorescence over the uncleaved substrate", "setting": "recombinant caspase-3; recombinant caspase-3", "result": "greater than 10 fold"}, {"measurement": "cleavage by lysate from apoptotic HL-60 cells", "setting": "HL-60 lysates", "result": "readily cleaved"}]}
{"smiles": "CC(C)[C@H](NC(=O)OCc1ccccc1)C(=O)NC(CC(=O)O)C(=O)CF", "note": "(stereo partly drawn) [cbz-Val-Asp-fink]", "values": [{"measurement": "inhibition of staurosporine induced cleavage of Ac-DEVD-R110-TFB in whole cells", "setting": "Jurkat T leukemia cells; staurosporine 0.5 μg/ml, 2 hrs", "result": "can be inhibited by the pan-caspase inhibitor"}]}
{"smiles": "CN[C@@H]1C[C@H]2O[C@@](C)([C@@H]1OC)n1c3ccccc3c3c4c(c5c6ccccc6n2c5c31)C(=O)NC4", "note": "[staurosporine]", "values": [{"measurement": "induction of apoptosis read out as cleavage of Ac-DEVD-R110-TFB", "setting": "Jurkat T leukemia cells; inducer at 0.5 μg/ml, 2 hrs", "result": "leads to cleavage of the caspase-3 substrate"}]}
